Tests used:
S. pneumoniae D39V [1] = test: fitness (endpoint OD595 vs no drug) (fraction); higher = more growth
Method in brief: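 Background-subtracted growth curves were the basis for fitness, taken as the optical density at entry into stationary phase over the robust mean of no-drug control wells. A cap of 1 was applied. The curves came from OD595 readings every 30 min for 14 h at 37 °C, in 384-well plates seeded at OD595 0.01 with 30 µl, or 55 µl for S. pneumoniae.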

B. subtilis 168 = test: Bliss interaction score (quartile over a dose matrix) (fitness difference); higher = more antagonism (negative = synergy)
Method in brief: (§1)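 Quartiles summarise the Bliss score over technical, biological and donor/recipient replicates, where the score is observed minus expected fitness under a product model. Expected fitness uses single-drug values inferred from combination data. Fitness is OD595 at entry into stationary phase over the plate's robust no-drug mean, capped at 1.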

S. aureus Newman = test: as above
Method in brief: as §1

S. aureus DSM 20231 = test: as above
Method in brief: as §1

S. pneumoniae D39V [2] = test: as above
Method in brief: as §1
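Throughout, for Bliss interaction score (quartile over a dose matrix): first quartile when negative (synergy) and third quartile when positive (antagonism).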

C[C@@H](O)[C@H]1C(=O)N2C(C(=O)O)=C(SCCNC=N)C[C@H]12 [Imipenem] + CN(N=O)C(=O)N[C@@H](C=O)[C@@H](O)[C@H](O)[C@H](O)CO [Streptozotocin]
fitness, S. pneumoniae D39V [1], one replicate
Details	first compound 0.005 µg/mL	first compound 0.01 µg/mL	first compound 0.02 µg/mL
partner 1.2 µg/mL	0.986	0.949	≥ 1
partner 2.4 µg/mL	0.983	0.931	0.97
partner 4.8 µg/mL	0.917	0.86	0.94

fitness, S. pneumoniae D39V [1]
Details	first compound 0.0065 µg/mL	first compound 0.013 µg/mL	first compound 0.026 µg/mL
partner 1.2 µg/mL	0.966	0.908	0.908
partner 2.4 µg/mL	0.942	0.884	0.824
partner 4.8 µg/mL	0.968	0.945	0.966

Details	Bliss interaction score
B. subtilis 168	-0.138
S. aureus DSM 20231	-0.0317
S. aureus Newman	-0.0113
S. pneumoniae D39V [2]	0.0577

C[C@@H](O)[C@H]1C(=O)N2C(C(=O)O)=C(SCCNC=N)C[C@H]12 [Imipenem] + CN[C@@H]1[C@H](O)[C@H](NC)[C@H]2O[C@@]3(O)C(=O)C[C@@H](C)O[C@H]3O[C@@H]2[C@H]1O [Spectinomycin]
fitness, S. pneumoniae D39V [1], one replicate
Details	first compound 0.005 µg/mL	first compound 0.01 µg/mL	first compound 0.02 µg/mL
partner 4 µg/mL	0.988	0.983	≥ 1
partner 8 µg/mL	0.914	0.886	0.948

fitness, S. pneumoniae D39V [1]
Details	first compound 0.0065 µg/mL	first compound 0.013 µg/mL	first compound 0.026 µg/mL
partner 4 µg/mL	0.895	0.878	–
partner 8 µg/mL	0.878	0.864	0.813
partner 16 µg/mL	0.788	0.828	0.888

Details	Bliss interaction score
B. subtilis 168	-0.0558
S. aureus DSM 20231	-0.043
S. aureus Newman	-0.0557
S. pneumoniae D39V [2]	0.0606

C[C@@H](O)[C@H]1C(=O)N2C(C(=O)O)=C(SCCNC=N)C[C@H]12 [Imipenem] + CN[C@@H]1[C@H](O[C@H]2[C@H](O[C@H]3[C@H](O)[C@@H](O)[C@H](N=C(N)N)[C@@H](O)[C@@H]3N=C(N)N)O[C@@H](C)[C@]2(O)C=O)O[C@@H](CO)[C@H](O)[C@H]1O [Streptomycin]
fitness, S. pneumoniae D39V [1], one replicate
Details	first compound 0.005 µg/mL	first compound 0.01 µg/mL	first compound 0.02 µg/mL
partner 2 µg/mL	≥ 1	0.955	0.988
partner 16 µg/mL	0.779	0.813	0.786

fitness, S. pneumoniae D39V [1]
Details	first compound 0.005 µg/mL	first compound 0.0065 µg/mL	first compound 0.01 µg/mL	first compound 0.013 µg/mL	first compound 0.02 µg/mL	first compound 0.026 µg/mL
partner 2 µg/mL	–	0.959	–	0.868	–	0.847
partner 4 µg/mL	0.965	0.923	0.986	0.903	0.97	0.886
partner 8 µg/mL	0.837	0.916	0.863	0.907	0.875	0.85

Details	Bliss interaction score
B. subtilis 168	0.1
S. aureus DSM 20231	-0.0295
S. aureus Newman	0.076
S. pneumoniae D39V [2]	0.0603

C[C@@H](O)[C@H]1C(=O)N2C(C(=O)O)=C(SCCNC=N)C[C@H]12 [Imipenem] + CN[C@H](CC(C)C)C(=O)N[C@H]1C(=O)N[C@@H](CC(N)=O)C(=O)N[C@H]2C(=O)N[C@H]3C(=O)N[C@H](C(=O)N[C@H](C(=O)O)c4cc(O)cc(O)c4-c4cc3ccc4O)[C@H](O)c3ccc(c(Cl)c3)Oc3cc2cc(c3O[C@@H]2O[C@H](CO)[C@@H](O)[C@H](O)[C@H]2O[C@H]2C[C@](C)(N)[C@H](O)[C@H](C)O2)Oc2ccc(cc2Cl)[C@H]1O [Vancomycin]
fitness, S. pneumoniae D39V [1]
Details	first compound 0.005 µg/mL	first compound 0.0065 µg/mL	first compound 0.01 µg/mL	first compound 0.013 µg/mL	first compound 0.02 µg/mL	first compound 0.026 µg/mL
partner 0.03125 µg/mL	0.991	–	0.973	–	0.958	–
partner 0.0625 µg/mL	0.943	–	0.928	–	0.922	–
partner 0.125 µg/mL	0.783	0.769	0.767	0.798	0.76	0.817
partner 0.25 µg/mL	–	0.0266	–	0.0839	–	0.0574
partner 0.5 µg/mL	–	0.0186	–	0.0324	–	0.0486

Details	Bliss interaction score
B. subtilis 168	-0.0736
S. aureus DSM 20231	0.0423
S. aureus Newman	-0.0669
S. pneumoniae D39V [2]	-0.184

C[C@@H](O)[C@H]1C(=O)N2C(C(=O)O)=C(SCCNC=N)C[C@H]12 [Imipenem] + CO[C@H]1/C=C/O[C@@]2(C)Oc3c(C)c(O)c4c(O)c(c(/C=N/N5CCN(C)CC5)c(O)c4c3C2=O)NC(=O)/C(C)=C\C=C\[C@H](C)[C@H](O)[C@@H](C)[C@@H](O)[C@@H](C)[C@H](OC(C)=O)[C@@H]1C [Rifampicin]
fitness, S. pneumoniae D39V [1], one replicate
Details	first compound 0.005 µg/mL	first compound 0.01 µg/mL	first compound 0.02 µg/mL
partner 0.025 µg/mL	0.856	0.81	0.816
partner 0.2 µg/mL	0	0	0

fitness, S. pneumoniae D39V [1]
Details	first compound 0.0065 µg/mL	first compound 0.013 µg/mL	first compound 0.02 µg/mL	first compound 0.026 µg/mL
partner 0.05 µg/mL	0.678	0.721	0.726	0.695
partner 0.1 µg/mL	0.402	–	–	0.361
partner 0.2 µg/mL	0.254	–	–	–

Details	Bliss interaction score
B. subtilis 168	0.0636
S. aureus DSM 20231	0.0391
S. aureus Newman	0.0149
S. pneumoniae D39V [2]	-0.106

C[C@@H](O)[C@H]1C(=O)N2C(C(=O)O)=C(SCCNC=N)C[C@H]12 [Imipenem] + COc1c(N2C[C@@H]3CCCN[C@@H]3C2)c(F)cc2c(=O)c(C(=O)O)cn(C3CC3)c12 [Moxifloxacin]
fitness, S. pneumoniae D39V [1]
Details	first compound 0.005 µg/mL	first compound 0.0065 µg/mL	first compound 0.01 µg/mL	first compound 0.013 µg/mL	first compound 0.02 µg/mL	first compound 0.026 µg/mL
partner 0.0037 µg/mL	–	0.821	–	0.805	–	0.751
partner 0.005 µg/mL	0.968	–	0.949	–	0.963	–
partner 0.0075 µg/mL	–	0.853	–	0.863	–	0.649
partner 0.01 µg/mL	0.99	–	0.981	–	0.976	–
partner 0.015 µg/mL	–	0.856	–	0.67	–	0.65
partner 0.02 µg/mL	0.933	–	0.904	–	0.941	–

Details	Bliss interaction score
B. subtilis 168	0.0307
S. aureus DSM 20231	-0.0816
S. aureus Newman	0.0177
S. pneumoniae D39V [2]	0.0521

From the supplement of paper PMC10627819
